{"source": "patent US20260250312A1", "about": "“ANTIBACTERIAL COMPOUNDS ELIMINATING DORMANT BACTERIAL CELLS” (UNIVERSITÉ D'AIX-MARSEILLE, priority 2022, published 2026)", "assay_type_in_all_cases": "cell-based", "key": {"[1]": {"test_system": "Staphylococcus aureus (ATCC25923)", "test": "Microdilution MIC assay (CLSI-based), S. aureus", "settings": "20 hours incubation at 35-37° C., MHB; for MIC: read-out: Minimum inhibitory concentration S. aureus ATCC25923", "method": "(§1) The antibacterial activity of compounds was measured using a standard microdilution assay based on the Clinical and Laboratory Standards Institute (CLSI) guidelines. This method was slightly modified. Indeed, assay volumes were increased to 200 μL to improve reproducibility. The chemical compounds to be tested were in the form of salts for biological testing.\n(§2) Bacteria tested: Antibacterial activities of the compounds were tested on Staphylococcus aureus (ATCC25923), Enterococcus faecalis (ATCC29212), Escherichia coli ([…]) and Pseudomonas aeruginosa (ATCC27853).\n(§3) Preparation of the Preculture: Mueller Hinton Agar plates were inoculated with frozen biological strain in order to obtain separate colonies and the plates were incubated during 24 h at 35-37° C. 3 colonies of similar aspect were picked out, resuspended in 5 mL of fresh Mueller Hinton broth 1× (MHB) and incubated with shaking (160 rpm) at 35-37° C. overnight.\n(§4) 0.1 mL of bacteria in exponential phase were suspended in 9.9 mL of MHB (1:100 dilution). 0.1 mL of the 1:100 dilution were dispensed into the wells of microplates containing 0.1 ml of serial compounds dilutions to yield ca. 5×10^5 CFU/mL. In parallel, the stocks solutions of chemical compounds were first diluted in appropriate solvent to a final concentration of 5 mg/mL. 8 μL were dispended into the first wells of the microplates containing 0.1 ml of sterile broth and a 0.5 cascade dilution was performed in MHB from 0.2 mg/mL. One control was made for each strain tested. […] Tests were performed in triplicate.\n(§5) Reading of the Results: After incubation, the filter was replaced with a transparent film, and an optical density reading was then taken in an iEMS plate spectrophotometer at 620 nm. Calculation of the minimum inhibitory concentration (MIC) was performed."}, "[2]": {"test_system": "Enterococcus faecalis (ATCC29212)", "test": "Microdilution MIC assay (CLSI-based), E. faecalis", "settings": "20 hours incubation at 35-37° C., MHB; for MIC: read-out: Minimum inhibitory concentration E. faecalis ATCC29212", "method": "as §1, §2, §3, §4, §5"}, "[3]": {"test_system": "Escherichia coli (ATCC28922)", "test": "Microdilution MIC assay (CLSI-based), E. coli", "settings": "20 hours incubation at 35-37° C., MHB; for MIC: read-out: Minimum inhibitory concentration E. coli ATCC28922", "method": "as §1, §2, §3, §4, §5"}, "[4]": {"test_system": "Pseudomonas aeruginosa (ATCC27853)", "test": "Microdilution MIC assay (CLSI-based), P. aeruginosa", "settings": "20 hours incubation at 35-37° C., MHB; for MIC: read-out: Minimum inhibitory concentration P. aeruginosa ATCC27853", "method": "as §1, §2, §3, §4, §5"}, "[5]": {"settings": "Staphylococcus aureus, ATCC25923, 20 h"}, "[6]": {"settings": "Enterococcus faecalis, ATCC29212, 20 h"}, "[7]": {"settings": "Escherichia coli, ATCC28922, 20 h"}, "[8]": {"settings": "Pseudomonas aeruginosa, ATCC27853, 20 h"}}, "note": "“And” between values parts separate entries of the source, which are not always exact repeats. Equal entries are not always repeated. Where two headings read alike, the source gives them in different places."}
{"smiles": "COC(=O)[C@H](Cc1ccccc1)NC(=O)CC[C@@H](C)[C@H]1CCC2C3C(CC[C@@]21C)[C@@]1(C)CC[C@H](NCCCCCCCCCCN)C[C@H]1C[C@H]3O", "note": "(stereo partly drawn) [Compound S032, methyl ((4R)-4-((3S,5S,7R,10S,13R,17R)-3-((10-aminodecyl)amino)-7-hydroxy-10,13-dimethylhexadecahydro-1H-cyclopenta[a]phenanthren-17-yl)pentanoyl)-L-phenylalaninate]", "values": [{"measurement": "MIC", "setting": "[1]; [5]", "value": "50 µM and 32 µg/mL"}, {"measurement": "MIC", "setting": "[2]; [6]", "value": "12.5 µM and 8 µg/mL"}, {"measurement": "MIC", "setting": "[3]; [7]", "value": "50 µM and 32 µg/mL"}, {"measurement": "MIC", "setting": "[4]; [8]", "value": "200 µM and 128 µg/mL"}]}
{"smiles": "COC(=O)CNC(=O)CC[C@@H](C)[C@H]1CCC2C3C(CC[C@@]21C)[C@@]1(C)CC[C@H](NCCCNCCCCNCCCN)C[C@H]1C[C@H]3O", "note": "(stereo partly drawn) [Compound S027, methyl ((4R)-4-((3S,5S,7R,10S,13R,17R)-3-((3-((4-((3-aminopropyl)amino)butyl)amino)propyl)amino)-7-hydroxy-10,13-dimethylhexadecahydro-1H-cyclopenta[a]phenanthren-17-yl)pentanoyl)glycinate]", "values": [{"measurement": "Minimum inhibitory concentration S. aureus ATCC25923", "setting": "[1]", "value": 4, "unit": "µg/mL"}, {"measurement": "MIC", "setting": "[1]", "value": 6.25, "unit": "µM"}, {"measurement": "Minimum inhibitory concentration E. faecalis ATCC29212", "setting": "[2]", "value": 16, "unit": "µg/mL"}, {"measurement": "MIC", "setting": "[2]", "value": 25, "unit": "µM"}, {"measurement": "Minimum inhibitory concentration E. coli ATCC28922", "setting": "[3]", "value": 8, "unit": "µg/mL"}, {"measurement": "MIC", "setting": "[3]", "value": 12.5, "unit": "µM"}, {"measurement": "Minimum inhibitory concentration P. aeruginosa ATCC27853", "setting": "[4]", "value": 32, "unit": "µg/mL"}, {"measurement": "MIC", "setting": "[4]", "value": 50, "unit": "µM"}]}
{"smiles": "COC(=O)[C@H](Cc1ccccc1)NC(=O)CC[C@@H](C)[C@H]1CCC2C3CC[C@@H]4C[C@@H](NCCCN(CCCN)CCCN)CC[C@]4(C)C3C[C@H](O)[C@@]21C", "note": "(stereo partly drawn) [Compound S055, methyl ((4R)-4-((3S,5R,10S,12S,13R,17R)-3-((3-(bis(3-aminopropyl)amino)propyl)amino)-12-hydroxy-10,13-dimethylhexadecahydro-1H-cyclopenta[a]phenanthren-17-yl)pentanoyl)-L-phenylalaninate]", "values": [{"measurement": "MIC", "setting": "[1]; [5]", "value": "50 µM and 32 µg/mL"}, {"measurement": "MIC", "setting": "[2]; [6]", "value": "50 µM and 32 µg/mL"}, {"measurement": "MIC", "setting": "[3]; [7]", "value": "25 µM and 16 µg/mL"}, {"measurement": "MIC", "setting": "[4]; [8]", "value": "100 µM and 64 µg/mL"}]}
{"smiles": "COC(=O)[C@H](NC(=O)CC[C@@H](C)[C@H]1CCC2C3C(CC[C@@]21C)[C@@]1(C)CC[C@H](NCCCNCCCN)C[C@H]1C[C@H]3O)C(C)C", "note": "(stereo partly drawn) [Compound S021, methyl ((4R)-4-((3S,5S,7R,10S,13R,17R)-3-((3-((3-aminopropyl)amino)propyl)amino)-7-hydroxy-10,13-dimethylhexadecahydro-1H-cyclopenta[a]phenanthren-17-yl)pentanoyl)-D-valinate]", "values": [{"measurement": "Minimum inhibitory concentration S. aureus ATCC25923", "setting": "[1]", "value": 8, "unit": "µg/mL"}, {"measurement": "MIC", "setting": "[1]", "value": 12.5, "unit": "µM"}, {"measurement": "Minimum inhibitory concentration E. faecalis ATCC29212", "setting": "[2]", "value": 32, "unit": "µg/mL"}, {"measurement": "MIC", "setting": "[2]", "value": 50, "unit": "µM"}, {"measurement": "Minimum inhibitory concentration E. coli ATCC28922", "setting": "[3]", "value": 32, "unit": "µg/mL"}, {"measurement": "MIC", "setting": "[3]", "value": 50, "unit": "µM"}, {"measurement": "Minimum inhibitory concentration P. aeruginosa ATCC27853", "setting": "[4]", "value": 32, "unit": "µg/mL"}, {"measurement": "MIC", "setting": "[4]", "value": 50, "unit": "µM"}]}
{"smiles": "COC(=O)[C@@H](NC(=O)CC[C@@H](C)[C@H]1CCC2C3CC[C@@H]4C[C@@H](NCCCN5CCN(CCCN)CC5)CC[C@]4(C)C3CC[C@@]21C)C(C)C", "note": "(stereo partly drawn) [Compound S056, methyl ((4R)-4-((3S,5R,10S,13R,17R)-3-((3-(4-(3-aminopropyl)piperazin-1-yl)propyl)amino)-10,13-dimethylhexadecahydro-1H-cyclopenta[a]phenanthren-17-yl)pentanoyl)-L-valinate]", "values": [{"measurement": "MIC", "setting": "[1]; [5]", "value": "200 µM and 128 µg/mL"}, {"measurement": "MIC", "setting": "[2]; [6]", "value": "100 µM and 64 µg/mL"}, {"measurement": "MIC", "setting": "[3]; [7]", "value": "200 µM and 128 µg/mL"}, {"measurement": "MIC", "setting": "[4]; [8]", "value": "> 200 µM and > 128 µg/mL"}]}
